Data published in PubChem BioAssay (NCI).
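Assay format: 96-well plates, 48-hour exposure. GI50 is the concentration that inhibits growth by half. TGI: total growth inhibition.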

Legend:
Test in all cases: NCI tumour cell line growth inhibition, 48 h
[1] = test system: HCT-15 colon
[2] = test system: MDA-MB-231 breast
[3] = test system: MOLT-4 leukemia
[4] = test system: NCI-H23 lung
[5] = test system: OVCAR-3 ovarian
[6] = test system: SF-295 CNS
[7] = test system: SNB-75 CNS
[8] = test system: A498 renal
[9] = test system: SN12C renal
[10] = test system: NCI-H460 lung
[11] = test system: RXF 393 renal
[12] = test system: UACC-257 melanoma
[13] = test system: BT-549 breast
[14] = test system: PC-3 prostate
[15] = test system: NCI/ADR-RES ovarian
[16] = test system: SK-MEL-5 melanoma
[17] = test system: HOP-62 NSCLC
[18] = test system: NCI-H226 lung
[19] = test system: COLO 205 colon
[20] = test system: LOX IMVI melanoma
[21] = test system: SK-MEL-28 melanoma
[22] = test system: OVCAR-5 ovarian
[23] = test system: SK-MEL-2 melanoma
[24] = test system: SNB-19 CNS
[25] = test system: MDA-MB-435
[26] = test system: SF-539 CNS
[27] = test system: CCRF-CEM leukemia
[28] = test system: SR leukemia
[29] = test system: M14 melanoma
[30] = test system: RPMI-8226 leukemia
[31] = test system: UACC-62 melanoma
[32] = test system: 786-0 renal
[33] = test system: IGROV1 ovarian
[34] = test system: T-47D breast
[35] = test system: DU-145 prostate
[36] = test system: EKVX NSCLC
[37] = test system: TK-10 renal
[38] = test system: U251 CNS
[39] = test system: HCC-2998 colon
[40] = test system: K-562 leukemia
[41] = test system: ACHN renal
[42] = test system: UO-31 renal
[43] = test system: MDA-MB-468 breast
[44] = test system: HOP-92 NSCLC
[45] = test system: NCI-H522 lung
[46] = test system: KM12 colon
[47] = test system: OVCAR-4 ovarian
[48] = test system: HL-60(TB) leukemia
[49] = test system: MCF7 breast
[50] = test system: HS 578T breast
[51] = test system: A549 NSCLC
[52] = test system: HCT-116 colon
[53] = test system: SK-OV-3 ovarian
[54] = test system: SF-268 CNS
[55] = test system: CAKI-1 renal
[56] = test system: SW-620 colon
[57] = test system: OVCAR-8 ovarian
[58] = test system: MALME-3M melanoma
[59] = test system: HT29 colon

Cc1ccc(-c2ccc(SCC(=O)Nc3ccc(S(N)(=O)=O)cc3Br)nn2)cc1
GI50 [1]: 11.3 µM | TGI [1]: 23.4 µM | GI50 [2]: 4.19 µM | TGI [2]: 15.5 µM | GI50 [3]: > 100 µM | TGI [3]: > 100 µM | GI50 [4]: 9.73 µM | TGI [4]: 21.4 µM | GI50 [5]: 16.9 µM | TGI [5]: 32.4 µM | GI50 [6]: 10.5 µM | TGI [6]: 22.3 µM | GI50 [7]: 13.6 µM | TGI [7]: 37.1 µM | GI50 [8]: 19.3 µM | TGI [8]: 34.4 µM | GI50 [9]: 23.8 µM | TGI [9]: 60 µM | GI50 [10]: 10.3 µM | TGI [10]: 29 µM | GI50 [11]: 3.96 µM | TGI [11]: 20.5 µM | GI50 [12]: 22.7 µM | TGI [12]: 64.9 µM | GI50 [13]: 15.7 µM | TGI [13]: 44.2 µM | GI50 [14]: 5.64 µM | TGI [14]: 22.5 µM | GI50 [15]: 9.62 µM | TGI [15]: > 100 µM | GI50 [16]: 13.1 µM | TGI [16]: 26.5 µM | GI50 [17]: 6.99 µM | TGI [17]: 24.2 µM | GI50 [18]: 7.32 µM | TGI [18]: 24.7 µM | GI50 [19]: 17.4 µM | TGI [19]: 41.2 µM | GI50 [20]: 10.4 µM | TGI [20]: 25.5 µM | GI50 [21]: 13.4 µM | TGI [21]: 27 µM | GI50 [22]: 15 µM | TGI [22]: 32.4 µM | GI50 [23]: 16.4 µM | TGI [23]: 35.3 µM | GI50 [24]: 11.3 µM | TGI [24]: 23.3 µM | GI50 [25]: 25.4 µM | TGI [25]: > 100 µM | GI50 [26]: 10.4 µM | TGI [26]: 22.2 µM | GI50 [27]: > 100 µM | TGI [27]: > 100 µM | GI50 [28]: 60.4 µM | TGI [28]: > 100 µM | GI50 [29]: 30.5 µM | TGI [29]: > 100 µM | GI50 [30]: > 100 µM | TGI [30]: > 100 µM | GI50 [31]: 13.2 µM | TGI [31]: 26.2 µM | GI50 [32]: 16.4 µM | TGI [32]: 47 µM | GI50 [33]: 15.9 µM | TGI [33]: 31.3 µM | GI50 [34]: 10.6 µM | TGI [34]: 34.3 µM | GI50 [35]: 13.3 µM | TGI [35]: 32.1 µM | GI50 [36]: 15.5 µM | TGI [36]: 31.3 µM | GI50 [37]: 17.6 µM | TGI [37]: 39.5 µM | GI50 [38]: 6.17 µM | TGI [38]: 24 µM | GI50 [39]: 11.5 µM | TGI [39]: 28.1 µM | GI50 [40]: 36.3 µM | TGI [40]: > 100 µM | GI50 [41]: 12 µM | TGI [41]: 24.4 µM | GI50 [42]: 14.7 µM | TGI [42]: 28.6 µM | GI50 [43]: 15.3 µM | TGI [43]: 36.4 µM | GI50 [44]: 2.97 µM | TGI [44]: 13.5 µM | GI50 [45]: 10.9 µM | TGI [45]: 25.4 µM | GI50 [46]: 28.3 µM | TGI [46]: > 100 µM | GI50 [47]: 14.1 µM | TGI [47]: 35 µM | GI50 [48]: > 100 µM | TGI [48]: > 100 µM | GI50 [49]: 15.4 µM | TGI [49]: 37.1 µM | GI50 [50]: 13.1 µM | TGI [50]: 45.3 µM | GI50 [51]: 15 µM | TGI [51]: 30.9 µM | GI50 [52]: 3.67 µM | TGI [52]: 17.2 µM | GI50 [53]: 15.1 µM | TGI [53]: 29.3 µM | GI50 [54]: 18.4 µM | TGI [54]: 48.9 µM | GI50 [55]: 12.3 µM | TGI [55]: 28.5 µM | GI50 [56]: 27.2 µM | TGI [56]: > 100 µM | GI50 [57]: 13.3 µM | TGI [57]: 29.6 µM | GI50 [58]: 13.7 µM | TGI [58]: 28.8 µM | GI50 [59]: 7.6 µM | TGI [59]: 68.8 µM
